According to patent US20230001017A1, “FORMULATION FOR DELIVERY OF LUBRICIN GENE” (University of lowa Research Foundation, priority 2019, published 2023):
Entries after “also recorded” stand apart in the source; their conditions may differ.

Tests used:
[1] = tested on: PTOA after intra-articular fracture; experiment: Porcine intra-articular fracture (IAF) model; format: in vivo, Yucatan minipig; conditions: 6 months post-IAF; intra-articular injection, 2.5 mM; anatomically-reduced joints
Text: Yucatan Minipig Intra-articular Fracture Model. The Yucatan minipig model was developed to create an IAF of a reproducible severity without arthrotomy (Goetz et al., 2015). Under general anesthesia, an antero-medial approach to the hock joint, which is analogous to the human ankle joint, is made without disrupting the joint capsule. […] A stress-rising saw cut is made through the anterior tibial cortex, stopping 1-2 mm proximal to the subchondral bone. Two drill holes are made proximal to the saw cut into which a plate with a ball-joint is press fit. This ball joint interfaces with the instrumented sled on our impaction pendulum to rigidly support the tibia. The pendulum delivers a 40 J impact to the impaction tripod, driving the talus against the distal tibia causing a fracture of the distal tibia that is guided by the stress-rising saw cut. The result is a fracture fragment that consists of the anterior third of the distal tibial articular surface which is fixed using standard open reduction and internal fixation (ORIF) techniques (FIG. 12). […] In this study it is determined if lubricin gene therapy is an effective adjunct to amobarbital at the later time point, with or without residual incongruity; thus, all animals in this study survive to 12 months post-fracture. […]

[2] = tested on: PTOA after intra-articular fracture; conditions: 12 months post-IAF; cited from earlier work
[3] = tested on: joint capsule fibroblasts (JCFs); experiment: Collagen gel compaction assay with JCFs from treated joints; format: cell-based, rabbit; conditions: for Maximum compaction at 48 hours: cells from immobilized treated joints versus control joints; for Compaction rate: first 12 hours of incubation, versus control
Procedure: (§1) Capsule tissues were harvested and transferred to a T-75 flask with 15 mL of Dulbecco's Modified Eagle Medium/Ham's Formula-12 Nutrient Mixture (DMEM/F-12) media containing 10% fetal bovine serum (FBS), 1% Penn Strep, and 1% Amphotericin B, and incubated at 37° C. in a 5% O2, 5% CO2 atmosphere for about 5 days to allow cells to migrate out of the tissue and adhere to the plate. The JCFs were cultured until confluent (about 2 weeks) before analysis.
Collagen gel compaction assays were used to determine the contractile activity of JCFs isolated from variously treated rabbits (Yuda & McCulloch, 2018). Collagen gels were produced by combining 10×PBS containing phenol red, 1N NaOH, and rat tail type I collagen (2 mg/mL) (Invitrogen), and JCFs to give a final cell concentration of 1×10^6 cells/mL. Five hundred μL of the collagen gel mixture was added to each well in a 24-well plate and allowed to polymerize for 30 minutes in an incubator. After 30 minutes, 500 μL of DMEM containing 10% FBS and 50 μg/mL ascorbic acid was added to each well. The plates were then incubated for 24 hours to allow the cells to generate a state of isometric tension. After 24 hours, the medium was replaced with 500 μL of fresh DMEM containing 10% FBS and ascorbic acid. After 48 hours, the gels were detached from the walls of the wells using a sterile spatula to allow the cells to freely compact the gels. Images were acquired over the next 48 hours, and the changes in gel cross sectional area were measured with ImageJ.
DNA assays were used to control for well-well variations in cell numbers that could affect the rate and extent of gel compaction. After 48 hours of compaction, the medium was aspirated and the gels were washed with PBS thrice. Five hundred μL of 0.25 mg/mL collagenase was added and the plates incubated at 37° C. overnight. Cell pellets were collected by centrifuging at 500 g for 10 minutes. The supernatants were discarded and the pellets frozen at −80° C. overnight. After thawing at room temperature, the pellets were suspended in 1.0 mL of RNAse/DNAse-free water and then sonicated for 30 minutes. DNA concentrations were measured using 0.2 μg/mL of Hoechst 33342 in 10×TNE buffer (100 mM Tris, 2.0 M NaCl, and 10 mM EDTA at pH 7.4) with excitation and emission wavelengths at 360 nm and 460 nm respectively with calf thymus DNA as a standard. A calibration curve was generated to relate DNA concentration to the number of JCFs in the cultures.

[4] = Drug content of PLGA pellets; format: physicochemical
Procedure: Drug-loaded PLGA pellets were made by the hot-melt extrusion method (Leelakanok et al., […]; Danyuo et al., 2017). The goal was to load the maximum amount of drug possible in the pellets, which varies depending on the physical and chemical properties of the drugs and their behavior during the hot melt extrusion process. The maximum doses carried in PLGA pellets were 120±3.6 μg SSZ/mg pellet, 126±5 μg BAPN/mg pellet, and 250±3.2 μg CHP/mg pellet. In vitro tests confirmed the drugs and pellets were not cytotoxic (FIG. 40).
To determine the drug content of the pellets, the pellets were individually dissolved in chloroform (500 μL) and then mixed with 1 mL water to let the active ingredient migrate to the aqueous phase for at least 30 minutes. Drug elution profiles were characterized in vitro prior to implantation. Elution was measured by incubation of the pellets in phosphate buffered saline (PBS) at 37° C. in a shaking incubator set to 300 rpm (FIGS. 30B, C, and D) (Leelakanok et al., 2018; Danyuo et al., 2017). At each time point, PBS was removed from the pellets and replaced with fresh PBS. The amount of BAPN released at each time point was determined using a Fluorescamine assay followed by fluorescent spectroscopy (excitation wavelength: 390 nm, emission wavelength: 475 nm). The amount of CHP released at each time point was determined by hydroxyproline assay with spectrophotometric detection at 560 nm. The amount of SSZ released at each time point was determined using UV spectroscopy at 359 nm.

ACL function = experiment: Drawer test (A-P laxity), rabbit stifle joint immobilization model; format: in vivo; conditions: 8 weeks after pellet implantation; versus control
Text: The minimal number of animals was used to assess the specific aims of this study. Eight-rabbits were included in each of the treatment groups. […] Non-immobilized, untreated (normal) joints were included to provide normative baselines for joint mobility and histologic outcomes. The study included this normal group, as well as an immobilized group implanted with blank pellets (control), and immobilized groups treated with BAPN-, CHP-, or SSZ-loaded pellets. Joints were immobilized for 8 weeks to establish arthrofibrosis/capsule contracture as previously described (Nesterenko et al., 2009). Kirschner-wires (K-wires) were then removed and the various pellets implanted in the joint. […] Capsule tissues were harvested for histology to evaluate in situ α-SMA expression and intima thickness, and for in vitro quantitation of cellular contractile activity and α-SMA expression.
After flexion-extension testing, a custom loading fixture was used to assess sagittal-plane laxity (drawer test), which is related to cruciate ligament integrity (Tochigi et al., 2011). […] Force and displacement data were continuously recorded through the sequence of tests, which consisted of three cycles to adjust leg placement for neutral starting position, followed by three cycles of data collection. […]

α-SMA expression in JCFs = experiment: α-SMA immunostaining of JCFs from treated joints; format: cell-based, rabbit; conditions: versus control
Procedure: as §1
JCFs were seeded at a density of 10,000 cells per […] on UV-sterilized glass coverslips. After 48 hours, the medium was discarded and the samples were washed with Dulbecco's PBS (DPBS). The samples were fixed in 4% paraformaldehyde for 1 hour and then rinsed thrice with DPBS. The cells were then permeabilized with 0.5% Triton X for 5 minutes at room temperature and blocked with 10% goat serum for 30 minutes. The samples were then incubated with an anti-α-SMA mouse monoclonal antibody (Abcam) at a 1:100 dilution in DPBS overnight at 4° C. After washing in DPBS, the cells were blocked with goat serum for 30 minutes at 37° C. and then incubated with a fluorophore-conjugated goat anti-mouse IgG secondary antibody (488 excitation) (Life Technologies) at a 1:100 dilution for 30 minutes at 37° C. Cells were then washed thrice with DPBS, incubated with phalloidin at a 1:100 dilution for 30 minutes at 37° C., and then mounted with 4′,6-diamidino-2-phenylindole (DAPI)-containing mounting medium. Stained sections were imaged using an Olympus FV1000 confocal microscope. Percent positive α-SMA (immunostained/DAPI-stained×100) was evaluated in at least 4 microscope fields using ImageJ.

stifle joint stiffness = experiment: Flexion-extension testing, rabbit stifle joint immobilization model; format: in vivo; conditions: 8 weeks after pellet implantation; for Maximum torque (joint stiffness): versus blank pellet control
Text: (§2) The minimal number of animals was used to assess the specific aims of this study. Eight-rabbits were included in each of the treatment groups. […] Non-immobilized, untreated (normal) joints were included to provide normative baselines for joint mobility and histologic outcomes. The study included this normal group, as well as an immobilized group implanted with blank pellets (control), and immobilized groups treated with BAPN-, CHP-, or SSZ-loaded pellets. Joints were immobilized for 8 weeks to establish arthrofibrosis/capsule contracture as previously described (Nesterenko et al., 2009). Kirschner-wires (K-wires) were then removed and the various pellets implanted in the joint. After another 8 weeks the animals were euthanized, and the joints immediately tested for stiffness in extension and anterior-posterior (A-P) laxity. Capsule tissues were harvested for histology to evaluate in situ α-SMA expression and intima thickness, and for in vitro quantitation of cellular contractile activity and α-SMA expression.
Flexion-extension testing of normal and fibrotic joints was performed immediately after euthanasia, when limbs were disarticulated at the hip, stripped of skin and muscle, and fastened securely to a custom testing device equipped with a stepper motor and a 10 N load cell and controlled by a computer with a custom LabVIEW (National Instruments)-based program (FIG. 38) (Hildebrand et al., 2004; Nesterenko et al., 2009). Starting at 10° of extension, the limbs were driven to 170° of extension, and then returned to the starting position at a rotational velocity of 5°/s while continuously recording load and position. The starting extension angle was measured using a digital protractor (Barry Wixey Development) (FIG. 39). The peak torque at maximum extension (N-m) and dissipated energy (mJ) were derived as measures of joint stiffness. The increased hysteresis in immobilized joints arises from posterior capsule stiffening, which restricts extension, but not flexion.

synovial intima = experiment: Capsule histology, synovial intimal thickness; format: in vivo, rabbit; conditions: immobilization-induced increase, versus control
Text: as §2
Portions of the posterior capsule were fixed in 10% neutral buffered formalin, and then processed for paraffin histology. […] Stained slides were imaged using an Olympus VS110 Virtual Microscope System, and intimal thickness was quantified at 5 random areas in the synovial intima using ImageJ.

normal wound healing = conditions: therapeutic dose levels; cited from earlier work
[5] = tested on: fibrosis in a rat stifle joint immobilization model; conditions: in vivo; cited from earlier work

## CCC1(CCC(C)C)C(=O)NC(=O)NC1=O [amobarbital]
[1]
  PTOA progression at 6 months: dramatically forestalled the progression of PTOA; also recorded: highly effective in preventing changes
[2]
  PTOA progression at 12 months: moderate degenerative changes were observed; also recorded: less effective

## O=C(O)c1cc(/N=N/c2ccc(S(=O)(=O)Nc3ccccn3)cc2)ccc1O [SSZ, Sulfasalazine]
[3]
  Maximum compaction at 48 hours: significantly lower
  Compaction rate: significantly lower compaction rate
[3]; listed as Sulfasalazine
  Maximum compaction at 48 hours: significantly inhibited this effect
[4]
  Maximum dose carried in PLGA pellets: 120±3.6 μg SSZ/mg pellet
ACL function
  Anterior drawer stiffness / A-P laxity: significantly stiffer than controls
α-SMA expression in JCFs
  Percent α-SMA positive: significantly lower than control
α-SMA expression in JCFs; listed as sulfasalazine
  Percent α-SMA positive: significantly higher in control versus normal (p=0.0021) and versus sulfasalazine
Stifle joint stiffness
  Maximum torque (joint stiffness): significantly less stiff than controls
Stifle joint stiffness; listed as sulfasalazine
  Maximum torque (joint stiffness): reduced stiffness
Stifle joint stiffness; versus control
  Dissipated energy: significantly reduced
Synovial intima
  Synovial intimal thickness: inhibited significantly
Synovial intima; listed as sulfasalazine
  Synovial intimal thickness: significantly lower than control

## O=C(O)[C@@H]1C[C@@H](O)CN1 (relative stereo) [CHP, Cis-hydroxyproline]
[3]
  Compaction rate: somewhat lower than control
[4]
  Maximum dose carried in PLGA pellets: 250±3.2 μg CHP/mg pellet
Normal wound healing
  Effect on normal wound healing: Neither CHP nor BAPN retarded normal wound healing
α-SMA expression in JCFs
  Percent α-SMA positive: only slightly lower than control
Stifle joint stiffness
  Maximum torque (joint stiffness): Neither BAPN nor CHP had significant effects

## N#CCCN [BAPN, beta-amino propionitrile]
[3]
  Maximum compaction at 48 hours: significantly lower
  Compaction rate: somewhat lower than control
[3]; listed as beta-aminopropionitrile
  Maximum compaction at 48 hours: significantly inhibited this effect
[4]
  Maximum dose carried in PLGA pellets: 126±5 μg BAPN/mg pellet
Normal wound healing
  Effect on normal wound healing: Neither CHP nor BAPN retarded normal wound healing
α-SMA expression in JCFs
  Percent α-SMA positive: nearly significantly lower
Stifle joint stiffness
  Maximum torque (joint stiffness): Neither BAPN nor CHP had significant effects
[5]
  Development of fibrosis: prevented the development of fibrosis
